From ChEMBL document CHEMBL2331434, “Jatropholane-type diterpenes from Euphorbia sikkimensis” (J Nat Prod, 2013)
pIC50: −log10 of the molar value.

Assays:
A549 = assay: Cytotoxicity against human A549 cells assessed as inhibition of cell viability after 48 hrs by MTT assay; type: functional, cell-based; conditions: A549, 48 h
Danio rerio [1] = species on record: Danio rerio; assay: Antiangiogenic activity against wild AB-type transgenic zebrafish embryo expressing green fluorescent protein-labeled VEGFR2 assessed as inhibition of growth of intersegmental vessels treated at 24 hrs post fertilization measured after 48 hrs by alkaline phosphatase staining; type: functional, organism-based
Danio rerio [2] = species on record: Danio rerio; assay: Antiangiogenic activity against wild AB-type transgenic zebrafish embryo expressing green fluorescent protein-labeled VEGFR2 assessed as inhibition of growth of intersegmental vessels at 33.6 uM treated at 24 hrs post fertilization measured after 48 hrs by alkaline phosphatase staining; type: functional

Compound	pIC50 (A549)	pIC50 (Danio rerio [1])	growth inhibition (GI) (Danio rerio [2]) [%]	growth inhibition (GI) (Danio rerio [1])
C=C1CC[C@H]2[C@@H]([C@@H]3[C@@H]1C1=C(C[C@H](C)C1=O)C(=O)[C@H]3C)C2(C)C [SIKKIMENOID A]	< 5.00	–	–	–
Clc1ccc(Nc2nnc(Cc3ccncc3)c3ccccc23)cc1 [VATALANIB]	–	6.64	–	–
C=C1CC[C@H]2[C@@H]([C@@H]3[C@@H]1C1=C(C[C@](C)(O)C1=O)C(=O)[C@H]3C)C2(C)C [SIKKIMENOID C]	< 5.00	–	–	–
C=C1CC[C@H]2[C@@H]([C@@H]3[C@@H]1C1=C(C[C@@](C)(O)C1=O)C(=O)[C@H]3C)C2(C)C [SIKKIMENOID D]	< 5.00	–	–	–
C=C1CC[C@H]2[C@@H]([C@@H]3[C@@H]1C1=C(C[C@@H](C)C1=O)C(=O)[C@H]3C)C2(C)C [SIKKIMENOID B]	< 5.00	4.37	41.1	Dose-dependent effect
